Details: in formic acid

OC1OC[C@@H](O)[C@H](O)[C@H]1O (some centres undefined)
Details	solubility (mole fraction)
300.45 K	0.13
301.85 K	0.139
303.25 K	0.146
305.15 K	0.154
306.75 K	0.161
308.15 K	0.168
309.95 K	0.175
311.65 K	0.182
313.45 K	0.191
315.75 K	0.2
317.45 K	0.208
320.35 K	0.223
323.15 K	0.237
324.85 K	0.244

From BigSolDB 2.1
